# Measurements reported in US9902725B2, “Heterocyclic derivatives as RORgamma modulators” (GENFIT, priority 2014, dated 2018).
# Molecular target: T1, RORγt ligand-binding domain (RORγt-LBD) (Homo sapiens, UniProt P51449)
# T1 construct: 20 nM recombinantly expressed RORγ-LBD fused to GST
# T1 sequence (P51449 269-508 limits assumed): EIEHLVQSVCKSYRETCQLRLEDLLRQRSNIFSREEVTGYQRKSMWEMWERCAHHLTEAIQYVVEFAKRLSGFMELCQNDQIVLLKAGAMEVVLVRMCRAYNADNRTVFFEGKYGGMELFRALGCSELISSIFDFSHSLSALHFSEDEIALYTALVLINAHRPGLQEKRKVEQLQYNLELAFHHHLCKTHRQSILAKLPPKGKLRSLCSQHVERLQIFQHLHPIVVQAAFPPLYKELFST
# Test: Time-resolved FRET (TR-FRET) RORγt coactivator assay
# Assay type: biochemical
# Settings: GST-RORγ-LBD, biotinylated RIP140 peptide, coactivator displacement
# Source text: Time-resolved FRET (TR-FRET) RORγt coactivator assay was used to identify RORγ modulator compounds with ligand-dependent coactivator displacement. The assay uses a d2-labeled anti-GST antibody, synthetic N-terminally biotinylated peptide which is derived from nuclear receptor coactivator protein RIP140, and a RORγt ligand-binding domain (RORγt-LBD) that is tagged with glutathione-S-transferase (GST). The influence of compounds on the RORγ-peptide interaction relies on the binding dependent energy transfer from a donor to an acceptor fluorophore attached to the binding partner of interest. […] For reduction of background from compound fluorescence, TR-FRET method makes use of generic fluorophore labels and time resolved detection.
# The assays were done in a final volume of 20 μl in a 384 well plate in a CHAPS buffer (2 mM CHAPS; 1 mM DTT, 2 mM EDTA; 0.1% BSA), containing 20 nM recombinantly expressed RORγ-LBD fused to GST, 30 nM N-terminally biotinylated peptide, 1 nM streptavidin-terbium conjugate and 20 nM d2 labeled-anti-GST. Test compounds were diluted using 10 mM stock solution. The range of the final compound concentrations used in this test was from 0.3 nM to 30 μM (logarithmic scale). DMSO content of the samples was kept at 1%. The assay was equilibrated for 2 hours in the dark at room temperature in 384 well plates (Falcon). The signal was detected by an Ultra384 reader (TECAN). The results were visualized by plotting the ratio between the emitted light at 665 nm and 620 nm. A basal level of RORγ-peptide formation is observed in the absence of added compound. Compounds that promote coactivator displacement induce a concentration-dependent decrease in time-resolved fluorescent signal. Data were collected and analyzed using GraphPad Prism software (GraphPad Software V5.02, San Diego Calif. USA). IC50 in μM and Emax in % were reported for each compound.
row,SMILES,IC50 [nM]
1,"COC(=O)Cc1c[nH]c2ccc(CC(=O)NC(c3ccccc3)c3ccccc3N(C)C)cc12 (stereo not drawn) [Cpd. 70, methyl 2-{5-[({[2-(dimethylamino)phenyl](phenyl)methyl}carbamoyl)methyl]-1H-indol-3-yl}acetate]",< 1000
2,"COC(=O)Cc1c[nH]c2ccc(CC(=O)NC(c3ccccc3)c3ccccc3N3CCCC3)cc12 (stereo not drawn) [Cpd. 72, methyl 2-{5-[({phenyl[2-(pyrrolidin-1-yl)phenyl]methyl}carbamoyl)methyl]-1H-indol-3-yl}acetate]",< 1000
3,"COC(=O)Cc1c[nH]c2ccc(CC(=O)NC(c3ccccc3)c3ccccc3N3CCCCCC3)cc12 (stereo not drawn) [Cpd. 74, methyl 2-{5-[({[2-(azepan-1-yl)phenyl](phenyl)methyl}carbamoyl)methyl]-1H-indol-3-yl}acetate]",< 1000
4,"Cc1ccc(C(NC(=O)Cc2ccc3[nH]cc(CCC(=O)OC(C)(C)C)c3c2)c2ccccc2)c(N2CCOCC2)c1 (stereo not drawn) [Cpd. 80, tert-butyl 3-{5-[({[4-methyl-2-(morpholin-4-yl)phenyl](phenyl)methyl}carbamoyl)methyl]-1H-indol-3-yl}propanoate]",< 1000
5,"CC(C)(C)OC(=O)CCc1c[nH]c2ccc(CC(=O)NC(c3ccccc3)c3ccc(F)cc3N3CCCC3)cc12 (stereo not drawn) [Cpd. 92, tert-butyl 3-{5-[({[4-fluoro-2-(pyrrolidin-1-yl)phenyl](phenyl)methyl}carbamoyl)methyl]-1H-indol-3-yl}propanoate]",1000 to 10000
6,"CC(C)(C)OC(=O)CCc1c[nH]c2ncc(NC(=O)NC(c3ccccc3)c3ccccc3N3CCCCC3)cc12 (stereo not drawn) [Cpd. 94, tert-butyl 3-{5-[({phenyl[2-(piperidin-1-yl)phenyl]methyl}carbamoyl)amino]-1H-pyrrolo[2,3-b]pyridin-3-yl}propanoate]",1000 to 10000
7,"Cc1ccc(C(NC(=O)Cc2ccc3[nH]cc(CC(=O)O)c3c2)c2ccccc2)c(N2CCOCC2)c1 (stereo not drawn) [Cpd. 97, 2-{5-[({[4-methyl-2-(morpholin-4-yl)phenyl](phenyl)methyl}carbamoyl)methyl]-1H-indol-3-yl}acetic acid]",1000 to 10000
8,"Cc1ccc(C(NC(=O)Cc2ccc3[nH]cc(CCC(=O)OC(C)(C)C)c3c2)c2ccc(C)s2)c(C)c1 (stereo not drawn) [Cpd. 100, tert-butyl 3-[5-({[(2,4-dimethylphenyl)(5-methylthiophen-2-yl)methyl]carbamoyl}methyl)-1H-indol-3-yl]propanoate]",1000 to 10000
9,"Cc1ccc(C(NC(=O)Cc2ccc3[nH]cc(CCC(=O)OC(C)(C)C)c3c2)c2ccccc2)c(N2CCN(C)CC2)c1 (stereo not drawn) [Cpd. 102, tert-butyl 3-{5-[({[4-methyl-2-(4-methylpiperazin-1-yl)phenyl](phenyl)methyl}carbamoyl)methyl]-1H-indol-3-yl}propanoate]",1000 to 10000
10,"CC(C)CC(NC(=O)Cc1ccc2[nH]cc(CCC(=O)OC(C)(C)C)c2c1)c1cccc2ccccc12 (stereo not drawn) [Cpd. 104, tert-butyl 3-[5-({[3-methyl-1-(naphthalen-1-yl)butyl]carbamoyl}methyl)-1H-indol-3-yl]propanoate]",1000 to 10000
11,"CC(C)(C)OC(=O)CCc1c[nH]c2ccc(CC(=O)NC(c3ccccc3)c3ccccc3-n3cccc3)cc12 (stereo not drawn) [Cpd. 106, tert-butyl 3-{5-[({phenyl[2-(1H-pyrrol-1-yl)phenyl]methyl}carbamoyl)methyl]-1H-indol-3-yl}propanoate]",1000 to 10000
12,"Cc1ccc(N2CCCCC2)c(C(NC(=O)Cc2ccc3[nH]cc(CCC(=O)OC(C)(C)C)c3c2)c2ccccc2)c1 (stereo not drawn) [Cpd. 113, tert-butyl 3-{5-[({[5-methyl-2-(piperidin-1-yl)phenyl](phenyl)methyl}carbamoyl)methyl]-1H-indol-3-yl}propanoate]",1000 to 10000
13,"CC(C)(C)OC(=O)CCc1c[nH]c2ccc(CC(=O)NC(c3ccccc3)c3cc(Br)ccc3N3CCCC3)cc12 (stereo not drawn) [Cpd. 116, tert-butyl 3-{5-[({[5-bromo-2-(pyrrolidin-1-yl)phenyl](phenyl)methyl}carbamoyl)methyl]-1H-indol-3-yl}propanoate]",1000 to 10000
14,"CN(C)Cc1ccccc1C(NC(=O)Cc1ccc2[nH]cc(CCC(=O)O)c2c1)c1ccccc1 (stereo not drawn) [Cpd. 122, 3-(5-{[({2-[(dimethylamino)methyl]phenyl}(phenyl)methyl)carbamoyl]methyl}-1H-indol-3-yl)propanoic acid]",< 1000
15,"CC(C)(C)OC(=O)CCc1c[nH]c2ccc(CC(=O)NC(c3ccccc3)c3ccccc3N3CCCC(O)C3)cc12 (stereo not drawn) [Cpd. 123, tert-butyl 3-{5-[({[2-(3-hydroxypiperidin-1-yl)phenyl](phenyl)methyl}carbamoyl)methyl]-1H-indol-3-yl}propanoate]",1000 to 10000
16,"CC(C)(C)OC(=O)CCc1c[nH]c2ccc(CC(=O)NC(c3ccccc3)c3ccccc3N3CC=CCC3)cc12 (stereo not drawn) [Cpd. 127, tert-butyl 3-{5-[({phenyl[2-(1,2,3,6-tetrahydropyridin-1-yl)phenyl]methyl}carbamoyl)methyl]-1H-indol-3-yl}propanoate]",1000 to 10000
17,"CC(C)(C)OC(=O)CCc1c[nH]c2ccc(CC(=O)NC3(c4ccccc4N4CCCC4)CCCC3)cc12 [Cpd. 129, tert-butyl 3-{5-[({1-[2-(pyrrolidin-1-yl)phenyl]cyclopentyl}carbamoyl)methyl]-1H-indol-3-yl}propanoate]",1000 to 10000
18,"Cc1ccc(C(NC(=O)Cc2ccc3[nH]cc(CCC(=O)OC(C)(C)C)c3c2)c2ncccn2)c(N2CCCCC2)c1 (stereo not drawn) [Cpd. 131, tert-butyl 3-{5-[({[4-methyl-2-(piperidin-1-yl)phenyl](pyrimidin-2-yl)methyl}carbamoyl)methyl]-1H-indol-3-yl}propanoate]",< 1000
19,"Cc1ccc(C(CC(C)C)NC(=O)Cc2ccc3[nH]cc(CCC(=O)OC(C)(C)C)c3c2)c(N(C)C)c1 (stereo not drawn) [Cpd. 133, tert-butyl 3-{5-[({1-[2-(dimethylamino)-4-methylphenyl]-3-methylbutyl}carbamoyl)methyl]-1H-indol-3-yl}propanoate]",1000 to 10000
20,"COc1ccc(N2CCCCC2)c(C(NC(=O)Cc2ccc3[nH]cc(CCC(=O)OC(C)(C)C)c3c2)c2ccccc2)c1 (stereo not drawn) [Cpd. 135, tert-butyl 3-{5-[({[5-methoxy-2-(piperidin-1-yl)phenyl](phenyl)methyl}carbamoyl)methyl]-1H-indol-3-yl}propanoate]",1000 to 10000
21,"Cc1ccc(C(NC(=O)Cc2ccc3[nH]cc(CCC(=O)OC(C)(C)C)c3c2)c2ccc(C)s2)c(N2CCCCC2)c1 (stereo not drawn) [Cpd. 137, tert-butyl 3-{5-[({[4-methyl-2-(piperidin-1-yl)phenyl](5-methylthiophen-2-yl)methyl}carbamoyl)methyl]-1H-indol-3-yl}propanoate]",1000 to 10000
22,"Cc1ccc(C(NC(=O)Cc2ccc3[nH]cc(CCC(=O)OC(C)(C)C)c3c2)c2nccs2)c(N2CCCCC2)c1 (stereo not drawn) [Cpd. 139, tert-butyl 3-{5-[({[4-methyl-2-(piperidin-1-yl)phenyl](1,3-thiazol-2-yl)methyl}carbamoyl)methyl]-1H-indol-3-yl}propanoate]",< 1000
23,"CC(C)(C)OC(=O)CCc1c[nH]c2ccc(CC(=O)NC3(c4ccccc4N4CCCCC4)CCCCC3)cc12 [Cpd. 143, tert-butyl 3-{5-[({1-[2-(piperidin-1-yl)phenyl]cyclohexyl}carbamoyl)methyl]-1H-indol-3-yl}propanoate]",1000 to 10000
24,"CCOc1ccc(C(NC(=O)Cc2ccc3[nH]cc(CCC(=O)OC(C)(C)C)c3c2)c2ccccc2)c(N2CCCCC2)c1 (stereo not drawn) [Cpd. 149, tert-butyl 3-{5-[({[4-ethoxy-2-(piperidin-1-yl)phenyl](phenyl)methyl}carbamoyl)methyl]-1H-indol-3-yl}propanoate]",1000 to 10000
25,"Cc1cccc(C(NC(=O)Cc2ccc3[nH]cc(CCC(=O)OC(C)(C)C)c3c2)c2ccccc2N2CCCCC2)c1 (stereo not drawn) [Cpd. 157, tert-butyl 3-[5-({[(3-methylphenyl)[2-(piperidin-1-yl)phenyl]methyl]carbamoyl}methyl)-1H-indol-3-yl]propanoate]",< 1000
26,"Cc1ccc(C(NC(=O)Cc2ccc3[nH]cc(CCC(=O)OC(C)(C)C)c3c2)c2ccccc2)c(N)c1 (stereo not drawn) [Cpd. 183, tert-butyl 3-[5-({[(2-amino-4-methylphenyl)(phenyl)methyl]carbamoyl}methyl)-1H-indol-3-yl]propanoate]",1000 to 10000
27,"Cc1ccc(C(C(=O)NCc2ccc3[nH]cc(CCC(=O)OC(C)(C)C)c3c2)c2ccccc2)c(N2CCCCC2)c1 (stereo not drawn) [Cpd. 208, tert-butyl 3-[5-({2-[4-methyl-2-(piperidin-1-yl)phenyl]-2-phenylacetamido}methyl)-1H-indol-3-yl]propanoate]",< 1000
